Drawing on patent US11332472B2, “Substituted piperidines as inhibitors of ubiquitin specific protease 7” (LES LABORATOIRES SERVIER, priority 2017, dated 2022), this text covers IC50 for 18 molecules.

The target of the test is T1, USP7 (Homo sapiens, UniProt Q93009, C315A).
T1 construct: 0.25 nM His-His-USP7 (aa208-560, [C315A]) was incubated with compound; His-His (N)
T1 sequence (Q93009 208-560 C315A): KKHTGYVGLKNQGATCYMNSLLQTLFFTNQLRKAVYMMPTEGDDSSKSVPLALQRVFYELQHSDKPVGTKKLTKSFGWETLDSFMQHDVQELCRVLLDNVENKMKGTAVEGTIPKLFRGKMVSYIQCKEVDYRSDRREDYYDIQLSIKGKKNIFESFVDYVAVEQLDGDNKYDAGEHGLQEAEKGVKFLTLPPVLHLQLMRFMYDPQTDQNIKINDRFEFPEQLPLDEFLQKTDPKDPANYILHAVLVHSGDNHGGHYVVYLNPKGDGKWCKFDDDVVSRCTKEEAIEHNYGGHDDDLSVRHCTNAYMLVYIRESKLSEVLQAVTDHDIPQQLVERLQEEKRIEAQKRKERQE
The experiment in a line: Inhibition of USP7 by Fluorescence Intensity (FLINT) readings, Ubiquitin-Rhodamine-110 substrate. In kind it is biochemical. Conditions: 0.25 nM His-His-USP7 (aa208-560, [C315A]); compound 60 minutes at 30° C.; 500 nM Ubiquitin-Rhodamine substrate; 11-point curves. The protocol: USP7 activity was measured using Rhodamine-110 c-terminal labelled Ubiquitin as a substrate (Viva Biosciences). Incubation with USP7 results in the release of Rhodamine-110 leading to an increase in fluorescence which can be used in the continuous measurement of USP7 activity.
The USP7 reactions were performed in a 50 μL volume, in 384 well black solid low binding plates (Corning #3575). The reaction buffer consisted of 100 mM Bicine pH 8.0, 0.01% TritonX 100, 1 mM TCEP, and 10% DMSO.
0.25 nM His-His-USP7 (aa208-560, [C315A]) was incubated with compound (final concentration 10% DMSO) for 60 minutes at 30° C. The reaction was then initiated by the addition of 500 nM Ubiquitin-Rhodamine-10 substrate and the plate read every 3 minutes for 21 minutes to measure the release of Rhodamine-110. Fluorescence Intensity (FLINT) readings were measured using a Biomek Neo plate reader (Ex. 485 nm. Em. 535 nm).
The inhibition of increasing doses of compound was expressed as a percentage reduction in kinetic rate compared to the kinetic rates established between ‘DMSO only’ and ‘total inhibition’ controls (no USP7). The inhibitory concentrations that gave a 50% reduction in kinetic rate (IC50) were determined, from 11-point dose response curves, in XL-Fit using a 4-Parameter Logistic Model (Sigmoidal Dose-Response Model).
One may read the IC50 as the concentration that inhibits the measured activity by half. High values mean a need for much substance, low ones inhibition by little substance. `CC(C)n1ccc2c(=O)n(CC3(O)CCN(C(=O)[C@@H]4CCC(F)(F)C[C@H]4c4ccccc4)CC3)cnc21` (single isomer, unassigned) [Example 113, 3-[[1-[trans-4,4-difluoro-2-phenyl-cyclohexanecarbonyl]-4-hydroxy-4-piperidyl]methyl]-7-isopropyl-pyrrolo[2,3-d]pyrimidin-4-one] had an IC50 of 456 nM.
Molecule `O=C([C@@H]1CCC(F)(F)C[C@H]1c1cscn1)N1CCC(O)(Cn2cnc3c(-c4ccccc4)scc3c2=O)CC1` (single isomer, unassigned) [Example 82, 3-[[1-[trans-4,4-difluoro-2-thiazol-4-yl-cyclohexanecarbonyl]-4-hydroxy-4-piperidyl]methyl]-7-phenyl-thieno[3,4-d]pyrimidin-4-one] gave an IC50 of 10100 nM.
Molecule `COc1ccc(-n2ccc3c(=O)n(CC4(O)CCN(C(=O)[C@@H]5CCC(F)(F)C[C@H]5c5cccs5)CC4)cnc32)cc1` (single isomer, unassigned) [Example 73, 3-[[1-[trans-4,4-difluoro-2-(2-thienyl)cyclohexanecarbonyl]-4-hydroxy-4-piperidyl]methyl]-7-(4-methoxyphenyl)pyrrolo[2,3-d]pyrimidin-4-one] returned an IC50 of 83.8 nM.
Take `O=C([C@@H]1OCCO[C@@H]1c1ccccc1)N1CCC(O)(Cn2cnc3c(ccn3-c3ccccc3)c2=O)CC1` (single isomer, unassigned) [Example 5, 3-[[4-hydroxy-1-[cis-3-phenyl-1,4-dioxane-2-carbonyl]-4-piperidyl]methyl]-7-phenyl-pyrrolo[2,3-d]pyrimidin-4-one]: 19400 nM corresponded to half-maximal inhibition (IC50).
As for `COc1ccc(-n2ccc3c(=O)n(CC4(O)CCN(C(=O)C5CCCN5c5ccccc5)CC4)cnc32)cc1` (stereo not drawn) [Example 11, 3-[[4-hydroxy-1-(1-phenylpyrrolidine-2-carbonyl)-4-piperidyl]methyl]-7-(4-methoxyphenyl)pyrrolo[2,9-d]pyrimidin-4-one], the concentration for half-maximal inhibition (IC50) is 2570 nM.
The molecule `CN1C(=O)CC[C@@H](C(=O)N2CCC(O)(Cn3cnc4c(ccn4C)c3=O)CC2)[C@@H]1c1ccccc1` (single isomer, unassigned) [Example 38, 3-[[4-hydroxy-1-[trans-1-methyl-6-oxo-2-phenyl-piperidine-3-carbonyl]-4-piperidyl]methyl]-7-methyl-pyrrolo[2,3-d]pyrimidin-4-one] came in with an IC50 of 399 nM.
On to `COc1ccc(-n2ccc3c(=O)n(CC4(O)CCN(C(=O)[C@@H]5CCC(=O)N(C)[C@H]5c5ccccc5)CC4)cnc32)cc1` (single isomer, unassigned) [Example 118, 3-{[4-hydroxy-1-(trans-1-methyl-6-oxo-2-phenylpiperidine-3-carbonyl)piperidin-4-yl]methyl}-7-(4-methoxyphenyl)-3,7-dihydro-4H-pyrrolo[2,3-d]pyrimidin-4-one], for which the IC50 stood at 4640 nM.
The molecule `COc1ccc(-n2ccc3c(=O)n(CC4(O)CCN(C(=O)[C@@H]5C(C)=CCC[C@H]5c5ccsc5)CC4)cnc32)cc1` (single isomer, unassigned) [Example 62, 3-[[4-hydroxy-1-[trans-2-methyl-6-(3-thienyl)cyclohex-2-ene-1-carbonyl]-4-piperidyl]methyl]-7-(4-methoxyphenyl)pyrrolo[2,3-d]pyrimidin-4-one] gave an IC50 of 682 nM.
`COc1ccc(-n2ccc3c(=O)n(CC4(O)CCN(C(=O)[C@@H]5C(C)=CCC[C@H]5c5cccs5)CC4)cnc32)cc1` (single isomer, unassigned) [Example 59, 3-[[4-hydroxy-1-[trans-2-methyl-6-(2-thienyl)cyclohex-2-ene-1-carbonyl]-4-piperidyl]methyl]-7-(4-methoxyphenyl)pyrrolo[2,3-d]pyrimidin-4-one] yielded an IC50 of 65.2 nM.
`O=C([C@@H]1CCC(F)(F)C[C@H]1c1ccco1)N1CCC(O)(Cn2cnc3c(-c4ccccc4)scc3c2=O)CC1` (single isomer, unassigned) [Example 86, 3-[[1-[trans-4,4-difluoro-2-(2-furyl)cyclohexanecarbonyl]-4-hydroxy-4-piperidyl]methyl]-7-phenyl-thieno[3,4-d]pyrimidin-4-one] had an IC50 of 125 nM.
In turn, `Cn1ccnc1[C@@H]1CCCC[C@H]1C(=O)N1CCC(O)(Cn2cnc3c(ccn3-c3ccccc3)c2=O)CC1` (single isomer, unassigned) [Example 57, 3-[[4-hydroxy-1-[trans-2-(1-methylimidazol-2-yl)cyclohexanecarbonyl]-4-piperidyl]methyl]-7-phenyl-pyrrolo[2,3-d]pyrimidin-4-one] came in with an IC50 of 28400 nM.
Consider `O=C([C@@H]1CCC(F)(F)C[C@H]1c1ccncc1)N1CCC(O)(Cn2cnc3c(-c4ccccc4)scc3c2=O)CC1` (relative stereo) [Example 84, 3-[[1-[trans-4,4-difluoro-2-(4-pyridyl)cyclohexanecarbonyl]-4-hydroxy-4-piperidyl]methyl]-7-phenyl-thieno[3,4-d]pyrimidin-4-one], for which the IC50 was found to be 611 nM.
On to `COc1ccc(-n2ccc3c(=O)n(CC4(O)CCN(C(=O)[C@@H]5CCC(F)(F)C[C@H]5c5ccccc5)CC4)cnc32)cc1` (single isomer, unassigned) [Example 33, 3-[[1-(trans-4,4-difluoro-2-phenyl-cyclohexanecarbonyl)-4-hydroxy-4-piperidyl]methyl]-7-(4-methoxyphenyl)pyrrolo[2,3-d]pyrimidin-4-one], for which the IC50 was 4670 nM.
Molecule `O=C(Cc1cccc(O)c1)Nc1ccc2ncn(CC3(O)CCN(C(=O)[C@@H]4CCCC[C@H]4c4ccccc4)CC3)c(=O)c2n1` (relative stereo) [Example 104, 2-(3-hydroxyphenyl)-N-[3-[[4-hydroxy-1-(trans-2-phenylcyclohexanecarbonyl)-4-piperidyl]methyl]-4-oxo-pyrido[3,2-d]pyrimidin-6-yl]acetamide] had an IC50 of 21.7 nM.
With `O=C(C1CCCC(O)C1c1ccccc1)N1CCC(O)(Cn2cnc3c(ccn3-c3ccccc3)c2=O)CC1` (single isomer, unassigned) [Example 55, (1S,2S,3R or 1R,2R,3S)-3-[[4-hydroxy-1-[3-hydroxy-2-phenyl-cyclohexanecarbonyl]-4-piperidyl]methyl]-7-phenyl-pyrrolo[2,3-d]pyrimidin-4-one], inhibition was half-maximal at 113 nM (IC50).
Take `COc1ccc(-n2ccc3c(=O)n(CC4(O)CCN(C(=O)[C@@H]5OCCO[C@@H]5c5ccccc5)CC4)cnc32)cc1` (single isomer, unassigned) [Example 8, 3-[[4-hydroxy-1-[cis-3-phenyl-1,4-dioxane-2-carbonyl]-4-piperidyl]methyl]-7-(4-methoxyphenyl)pyrrolo[2,3-d]pyrimidin-4-one]: the IC50 worked out at 13300 nM.
`Cc1cc([C@@H]2CC(F)(F)CC[C@H]2C(=O)N2CCC(O)(Cn3cnc4c(-c5ccccc5)scc4c3=O)CC2)cs1` (relative stereo) [Example 90, 3-[[1-[trans-4,4-difluoro-2-(S-methyl-3-thienyl)cyclohexanecarbonyl]-4-hydroxy-4-piperidyl]methyl]-7-phenyl-thieno[3,4-d]pyrimidin-4-one] yielded an IC50 of 2920 nM.
The figure for `O=C(Nc1ccc2ncn(CC3(O)CCN(C(=O)[C@@H]4CCCC[C@H]4c4ccccc4)CC3)c(=O)c2n1)C1CCOC1` (relative stereo) [Example 101, N-[3-[[4-hydroxy-1-(trans-2-phenylcyclohexanecarbonyl)-4-piperidyl]methyl]-4-oxo-pyrido[3,2-d]pyrimidin-6-yl]tetrahydrofuran-3-carboxamide] is 99.6 nM.
